Results: patent US11337916B2, “Myrciaria dubia fruit extracts rich in organic acids, cosmetic compositions comprising same and cosmetic uses thereof” (ISP INVESTMENTS LLC, priority 2018, dated 2022)

Legend:
[1] = test system: creatine kinase; assay: Creatine kinase activity on "tired" dermal fibroblast cultures; format: cell-based; settings: 0.1% E1 extract or vitamin C at 4 μg/mL, two days of treatment
Description: The aim of this study is to determine the level of creatine kinase activity in dermal fibroblast cultures. The function of this enzyme is to catalyse the conversion of creatine to phosphocreatine, thus providing a rapidly usable energy reserve. This activity measurement is performed on cultures of “tired” dermal fibroblasts treated with 0.1% E1 Myrciaria extract (volume/volume), i.e. diluted 1/1000th in the culture medium. Protocol: Dermal fibroblast cultures are “tired” by a few replications (cells used between passes 15 and 20) and are fed with a nutrient-poor medium (without glucose) for 3 days. These cultures are treated with 0.1% E1 Myrciaria extract, or with vitamin C at 4 μg/mL as a positive control, from the second day of stress and for the remaining two days of stress. Two days after the start of treatment, a measurement of creatine kinase activity is performed using a kit (Abcam—ref: ab155901). For this purpose, the fibroblasts are detached with the CK buffer contained in the kit, recovered and centrifuged at 4000 g for 5 min at 4° C. The activity is then measured for each sample according to the kit protocol. Kinetics are obtained by a colorimetric reading with the Synergy 2 spectrometer (Biotek) coupled to Gen5 software.

[2] = test system: reconstructed epidermis; assay: Morphology of reconstructed epidermis in tired condition (rotenone), haematoxylin-eosin staining; format: cell-based, human; settings: rotenone added on day 12 of reconstruction, 3 h incubation
Excerpt: The aim of this study is to create a model of reconstructed “tired” human skin. To do this, the skin is reconstructed using adult donor keratinocytes and a respiratory chain inhibitor (rotenone) to create a lack of energy.
The use of a respiratory chain inhibitor such as rotenone creates mitochondrial dysfunction, including ATP depletion. Therefore, lack of cellular energy was equated in our model to a state of cellular fatigue (Han G et al, The mitochondrial complex I inhibitor rotenone induces endoplasmic reticulum stress and activation of GSK-3β in cultured rat retinal cells, Invest Ophthalmol Vis Sci. 31; 55(9):5616-28, 2014). These cultures are treated during the reconstruction with 0.1% E1 Myrciaria extract (volume/volume), i.e. diluted 1/1000th or 1% (volume/volume), i.e. diluted 1/100th in the culture medium.
Protocol: On day 12 of epidermal reconstruction, rotenone is added to the culture medium. A control condition is maintained without adding rotenone but changing the culture medium anyway. After 3 h incubation with the inhibitor, the medium is changed to a new medium containing 0.1% E1 Myrciaria extract and the epidermis is incubated again for 48 h. The placebo condition contains PBS (phosphate buffer saline) in the culture medium. The morphology of the skin is then observed by a Haematoxylin-Eosin (HE) staining. […]

[3] = test system: PFKFB3 (6-phosphofructo-2-kinase/fructose-2,6-biphosphatase 3); assay: PFKFB3 expression on reconstructed epidermis in tired condition (immunofluorescence); format: cell-based, human; settings: rotenone alone
Excerpt: The aim of this study is to determine the level of expression of PFKFB3 (6-phosphofructo-2-kinase/fructose-2,6-biphosphatase 3) in a model of “tired” reconstructed human skin.
PFKFB3 is involved in the glycolysis process. It is an inducible enzyme that is expressed by the active epithelial cells of the epidermis. It enables the activation of the enzyme PFK-1 (phosphofructokinase-1), which limits this glycolysis process.
To obtain “tired” skin, this is reconstructed using adult donor keratinocytes and a respiratory chain inhibitor (rotenone) to create a lack of energy (see example 6). These cultures are treated during reconstruction with 0.1% E1 Myrciaria extract (volume/volume), i.e. diluted 1/1000th in the culture medium.
Protocol: On day 12 of epidermal reconstruction, rotenone is added to the culture medium. A control condition is maintained without adding rotenone but changing the culture medium anyway. After 3 h incubation with the inhibitor, the medium is changed to a new medium containing 0.1% E1 Myrciaria extract and the epidermises are incubated again for 48 h. […]
For staining, the cuts are dewaxed by xylene and ethanol baths and then rinsed. […] The cuts are then examined under an Epi-fluorescence microscope (Zeiss Axiovert 200M microscope). A quantification of the fluorescence, using Volocity® image analysis software (PerkinElmer, Inc.), is performed from the obtained photographs.

SMILES	creatine kinase activity increase compared to untreated "tired" cells [1]	morphology of reconstructed epidermis versus control (HE staining) [2]	PFKFB3 expression change compared to unstressed epidermises [3]
O=C1O[C@H]([C@@H](O)CO)C(O)=C1O [vitamin C]	+44%	–	–
C=C(C)[C@H]1Cc2c(ccc3c2O[C@@H]2COc4cc(OC)c(OC)cc4[C@@H]2C3=O)O1 [rotenone]	–	thinner epidermis than the control and a more damaged basal layer	−20%
